Reference: US20150216870A1, “Combination of PI3K Inhibitor and C-Met Inhibitor” (Novartis AG, priority 2012, published 2015)

Key:
U-87 MG = experiment: CellTiter-Glo cell viability dose matrix in U-87 MG glioblastoma cells; type: cell-based, human; details: U87 MG (PTEN mutant, HGF expressing)
H4 = experiment: CellTiter-Glo cell viability dose matrix in H4 glioblastoma cells; type: cell-based, human; details: H4 (PTEN mutant, HGF expressing)
A172 = experiment: CellTiter-Glo cell viability dose matrix in A172 glioblastoma cells; type: cell-based, human; details: A172 (PTEN mutant, low HGF)
[1] = test system: U-87 MG human glioblastoma xenograft; experiment: U-87 MG xenograft tumor growth inhibition and tumor growth delay; type: in vivo, nude mice; details: for T/C or T/T0: D13; for Median TTE: endpoint 2000 mm3; for Regress.: PR: number of animals
Experimental: In this experiment, the U-87 MG human glioblastoma xenograft model is used to assess the anti-tumor efficacy of the PI3K inhibitor COMPOUND C and c-Met inhibitor 2-fluoro-N-methyl-4-[7-quinolin-6-yl-methyl)-imidazo[1,2-b][1,2,4]triazin-2yl]benzamide as single agents or in combination. U-87 MG tumor cells obtained from the National Cancer Institute are reported to be homozygous for likely oncogenic variants of CDKN2A, CDKN2C, CDKN2a, and PTEN; no mutations are detected in MET, PIK3CA, or 58 other genes that are frequently altered in neoplastic cells; and HGF expressing.
Mice are treated daily for 21 days with 17.7 and 35.3 mg/kg of the c-Met inhibitor and 32.7 mg/kg COMPOUND C monotherapies, and with the c-Met inhibitor/COMPOUND C dual therapy at 17.7:32.7. An c-Met inhibitor/COMPOUND C combination at the 58.8:5.4 mg/kg dose ratio was included in the study. The control mice received both vehicles, and a standard preclinical temozolomide regimen monitored tumor model performance. The oral treatments began on Day 1 (D1) in nude mice with established subcutaneous tumors. Each animal was euthanized when its tumor reached the predetermined 2000 mm3 endpoint volume, or on D60, whichever came first. The study was terminated on D51. […] Overall efficacy was determined from the times required for tumors to progress to the volume endpoint, and from D51 survival and regression rates. This report describes the methods and results of the U87MG-e326 tumor growth delay experiment.
The animals are fed ad libitum water (reverse osmosis, 1 ppm CI) and NIH 31 Modified and Irradiated Lab Diet® consisting of 18.0% crude protein, 5.0% crude fat, and 5.0% crude fiber. The mice are housed on irradiated Enrich-O'cobs™ Laboratory Animal Bedding in static microisolators on a 12-hour light cycle at 20-22° C. (68-72° F.) and 40-60% humidity.
The U-87 MG tumor line is obtained from the American Type Culture Collection and maintained by serial engraftment in nude mice. A tumor fragment (1 mm^3) is implanted subcutaneously into the right flank of each test mouse. Tumors are calipered in two dimensions to monitor growth as their mean volume approached the desired 100-150 mm^3 range. Tumor size, in mm^3, was calculated from: Tumor Volume=(width^2×length)/2, where width and length (in mm) are measurements of the tumor. Tumor weight can be estimated with the assumption that 1 mg is equivalent to 1 mm^3 of tumor volume. Fourteen days after tumor cell implantation, on D1 of the study, mice with individual tumor volumes of 63-196 mm^3 are sorted into seven groups, with group mean tumor volumes of 122-127 mm^3.
The c-Met inhibitor 2-fluoro-N-methyl-4-[7-quinolin-6-yl-methyl)-imidazo[1,2-b][1,2,4]triazin-2yl]benzamide (di-HCl salt, 84.98% free base) is stored at 4° C. and is added to deionized water at 2× the final concentration and sonicated until dissolved. An equal volume of 0.5% methylcellulose and 0.1% Tween® 80 in deionized water is added to provide a 5.884 mg/mL dosing solution in 0.25% methylcellulose and 0.05% Tween® 80 in deionized water (Vehicle 1). Portions of this solution are diluted with Vehicle 1 to provide 3.53 and 1.765 mg/mL dosing solutions.
COMPOUND C (HCl salt, 91.85% free base) is stored at −20° C. and is added to 1% Tween® 80 in deionized water and sonicated to obtain a uniform suspension at 2× the final concentration. […] The 0.544 mg/mL dosing suspension is obtained by diluting a portion of the first suspension with Vehicle 2.

[2] = Toxicity (deaths) in U-87 MG xenograft study; type: in vivo
Text: Animals are weighed on Days 1-5, on each treatment day (except weekends), and twice weekly thereafter, until the end of the study. Group mean BW nadir determinations exclude measurements taken after more than 50% of the assessable mice in the group had exited the study, and also excluded any animal that was classified as an NTR death during the study. Acceptable toxicity for the maximum tolerated dose (MTD) is defined as a group mean BW loss of less than 15% during the test, and not more than one TR death among ten animals. Any animal with BW losses exceeding 15% for three consecutive measurements, or with a BW loss exceeding 20% for one measurement, are euthanized, and classified as a TR death unless it was the first death in the group. A death is classified as Non-Treatment Related (NTR) if there was no evidence that the death is related to treatment side effects and the death occurs more than 14 days after dosing ended. NTR deaths are categorized as NTRa (due to accident or error), NTRu (due to unknown causes), or NTRm (necropsy-confirmed tumor dissemination by invasion and/or metastasis). To conserve animals while providing maximum information, the first death in a group was classified as NTRu; such an NTR death was to be reclassified as TR if two subsequent TR deaths are recorded in the same group.

[3] = c-Met inhibitor 17.7 mg/kg (15 mg/kg free base) p.o. qd x21
[4] = c-Met inhibitor 17.7 mg/kg p.o. qd x21
[5] = c-Met inhibitor 35.3 mg/kg (30 mg/kg free base) p.o. qd x21
[6] = c-Met inhibitor 35.3 mg/kg p.o. qd x21

With `CNC(=O)c1ccc(-c2cnc3ncc(Cc4ccc5ncccc5c4)n3n2)cc1F` [c-Met inhibitor] the “anti-proliferative activity (single agent)” value (“anti-proliferative activity” for short) (U-87 MG) was “only moderate activities”, the “anti-proliferative activity” value (H4) was “only moderate activities” and the “anti-proliferative activity” value (A172) was “completely inactive”. For the same compound, the “increase of median TTE” value ([1]; c-Met inhibitor 15 mg/kg free base p.o. qd x21) was 21.4 days, the “% TGD” value [1, 3] was 183% and the “T/C or T/T0” value [1, 3] was 5%. The “T/C or T/T0” value ([1]; c-Met inhibitor 17.7 mg/kg (15 mg/kg free base) p.o. qd x21, listed as c-Met inh.) was 5%, the “Median TTE” value [1, 3] was 33.1 days and the “Regress.: PR” value [1, 4] was 4 PR. For the same compound, the “increase of median TTE” value ([1]; c-Met inhibitor 30 mg/kg free base p.o. qd x21) was 23.4 days, the “% TGD” value [1, 5] was 200% and the “T/C or T/T0” value [1, 5] was 1%. The “T/C or T/T0” value ([1]; c-Met inhibitor 35.3 mg/kg (30 mg/kg free base) p.o. qd x21, listed as c-Met inh.) was 1%, the “Median TTE” value [1, 5] was 35.1 days and the “Regress.: PR” value [1, 6] was 4 PR. For the same compound, the Deaths [2, 4] was “(0)” and the Deaths [2, 6] was “(0)”.
